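These data come from cells grown in 96-well plates and exposed to compound for 48 hours at five concentrations. Abbreviation: GI50, concentration required for 50% inhibition of growth.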 The source made the active and inactive calls. No stated cut-off is given here; in the data, active = GI50 up to about 1.1 µM and inactive = higher.
How the values were obtained:
Assay in all cases: growth of human tumour cells (NCI), 48 h
[1] = system: 786-0
[2] = system: A549
[3] = system: ACHN
[4] = system: BT-549
[5] = system: CAKI-1
[6] = system: CCRF-CEM
[7] = system: COLO 205
[8] = system: DU-145
[9] = system: EKVX
[10] = system: HCC 2998
[11] = system: HCT-116
[12] = system: HCT-15
[13] = system: HL-60
[14] = system: HOP-62
[15] = system: HOP-92
[16] = system: HT-29
[17] = system: Hs-578T
[18] = system: IGROV-1
[19] = system: K562
[20] = system: KM12
[21] = system: LOX IMVI
[22] = system: M14
[23] = system: MCF7
[24] = system: MDA-MB-231
[25] = system: MDA-MB-435
[26] = system: MDA-N
[27] = system: MOLT-4
[28] = system: Malme-3M
[29] = system: NCI-H226
[30] = system: NCI-H23
[31] = system: NCI-H460
[32] = system: NCI-H522
[33] = system: NCI/ADR-RES
[34] = system: OVCAR-3
[35] = system: OVCAR-4
[36] = system: OVCAR-5
[37] = system: OVCAR-8
[38] = system: PC-3
[39] = system: RPMI-8226
[40] = system: RXF 393
[41] = system: SF-268
[42] = system: SF-295
[43] = system: SF-539
[44] = system: SK-MEL-28
[45] = system: SK-MEL-2
[46] = system: SK-MEL-5
[47] = system: SK-OV-3
[48] = system: SN12C
[49] = system: SNB-19
[50] = system: SNB-75
[51] = system: SR
[52] = system: SW-620
[53] = system: T47D
[54] = system: TK-10
[55] = system: U-251
[56] = system: UACC-257
[57] = system: UACC-62
[58] = system: UO-31
[59] = system: A498

Measured: GI50

CN1C(c2ccccc2)=CC(=O)C(O)=C(c2ccccc2)S1(=O)=O
> 100 µM: [12]
inactive: [1] > 100 µM | [2] > 100 µM | [3] > 100 µM | [4] > 100 µM | [5] > 100 µM | [6] > 100 µM | [7] > 100 µM | [8] > 100 µM | [9] > 100 µM | [10] > 100 µM | [11] > 100 µM | [13] > 100 µM | [14] > 100 µM | [15] > 100 µM | [16] > 100 µM | [17] > 100 µM | [18] > 100 µM | [19] > 100 µM | [20] > 100 µM | [21] > 100 µM | [22] > 100 µM | [23] > 100 µM | [24] > 100 µM | [25] > 100 µM | [26] > 100 µM | [27] > 100 µM | [28] > 100 µM | [29] > 100 µM | [30] > 100 µM | [31] > 100 µM | [32] > 100 µM | [33] > 100 µM | [34] > 100 µM | [35] > 100 µM | [36] > 100 µM | [37] > 100 µM | [38] > 100 µM | [39] > 100 µM | [40] > 100 µM | [41] > 100 µM | [42] > 100 µM | [43] > 100 µM | [44] > 100 µM | [45] > 100 µM | [46] > 100 µM | [47] > 100 µM | [48] > 100 µM | [49] > 100 µM | [50] > 100 µM | [51] > 100 µM | [52] > 100 µM | [53] > 100 µM | [54] > 100 µM | [55] > 100 µM | [56] > 100 µM | [57] > 100 µM | [58] > 100 µM

NC(=O)c1cc2ccccc2o/c1=N/c1ccccc1
inactive: [1] > 100 µM | [59] > 100 µM | [2] > 100 µM | [3] > 100 µM | [4] > 100 µM | [5] > 100 µM | [6] > 100 µM | [7] > 100 µM | [8] > 100 µM | [9] > 100 µM | [10] > 100 µM | [11] > 100 µM | [13] > 100 µM | [14] > 100 µM | [15] > 100 µM | [16] > 100 µM | [17] > 100 µM | [18] > 100 µM | [19] > 100 µM | [20] > 100 µM | [21] > 100 µM | [22] > 100 µM | [23] > 100 µM | [24] > 100 µM | [25] > 100 µM | [26] > 100 µM | [27] > 100 µM | [28] > 100 µM | [29] > 100 µM | [30] > 100 µM | [31] > 100 µM | [33] > 100 µM | [34] > 100 µM | [35] > 100 µM | [36] > 100 µM | [37] > 100 µM | [38] > 100 µM | [39] > 100 µM | [40] > 100 µM | [41] > 100 µM | [43] > 100 µM | [44] > 100 µM | [45] > 100 µM | [46] > 100 µM | [47] > 100 µM | [48] > 100 µM | [49] > 100 µM | [50] > 100 µM | [51] > 100 µM | [52] > 100 µM | [53] > 100 µM | [55] > 100 µM | [56] > 100 µM | [57] > 100 µM
> 100 µM: [12]

O=C1C2=C(SCCS2)C(=O)c2c(Sc3ccc(Cl)cc3)c(Sc3ccc(Cl)cc3)c(Sc3ccc(Cl)cc3)c(Sc3ccc(Cl)cc3)c21
inactive: [1] 78.5 µM | [59] 29.2 µM | [2] > 100 µM | [3] > 100 µM | [4] > 100 µM | [5] > 100 µM | [6] 11.6 µM | [7] > 100 µM | [8] > 100 µM | [9] > 100 µM | [10] > 100 µM | [11] > 100 µM | [14] 42.7 µM | [17] 8.49 µM | [18] 99.1 µM | [20] > 100 µM | [22] 33.8 µM | [23] > 100 µM | [24] 32 µM | [25] > 100 µM | [26] > 100 µM | [27] 17.1 µM | [28] 20.2 µM | [29] 40.8 µM | [30] 74.3 µM | [31] > 100 µM | [33] > 100 µM | [34] > 100 µM | [35] > 100 µM | [36] > 100 µM | [37] > 100 µM | [38] > 100 µM | [39] 51.3 µM | [40] 27 µM | [41] > 100 µM | [42] 32.5 µM | [45] 41.9 µM | [46] > 100 µM | [47] 94.6 µM | [48] > 100 µM | [49] 25.2 µM | [50] 19.1 µM | [51] 21.8 µM | [52] > 100 µM | [53] > 100 µM | [55] 57.8 µM | [56] > 100 µM | [57] 23.7 µM | [58] > 100 µM
> 100 µM: [12]

— ChEMBL document CHEMBL1201862, “PubChem BioAssay data set” (2004)
